# In patent publication US11130752B2, “Aminopyrimidine compound” (Cardurion Pharmaceuticals, LLC, priority 2018, dated 2021):
# Where a name gives a salt, the structure may show the parent alone.
# Molecular target: T1, human CaMKIIδ (Homo sapiens, UniProt Q13557)
# T1 construct: Full-length, glutathione-S-transferase(GST)-tagged, human CaMKIIδ was purchased from Carna Biosciences; purchased Carna Biosciences (CaMKIIδ); Wako Pure Chemical Industries (calmodulin) 02-111
# Assay: In vitro CaMKII inhibitory activity (binding assay, TR-FRET)
# Conditions: Table 1, GST-tagged human CaMKIIδ, activity ranks
# Method: Evaluation of In Vitro CaMKII Inhibitory Activity (Binding Assay)
# In vitro CaMKIIδ inhibitory activity was evaluated by a binding assay.
# Full-length, glutathione-S-transferase(GST)-tagged, human CaMKIIδ was purchased from Carna Biosciences (product #02-111, Kobe, Japan). Full-length bovine calmodulin was purchased from Wako Pure Chemical Industries (Osaka, Japan). Terbium-labeled anti-GST antibody (Tb-anti-GST Ab) was purchased from Life Technologies (Carlsbad, Calif., USA). Boron-dipyrromethene (BODIPY)-labeled probe ligand was synthesized as described below.
# Time-Resolved Fluorescence Resonance Energy Transfer (TR-FRET) Assay
# All assays were conducted using 384-well, white, flat-bottomed plates (product #784075, Greiner Bio-One, Frickenhausen, Germany) in kinase assay buffer, which consists of 50 mM HEPES pH 7.6, 10 mM MgCl2, 1 mM EGTA, 0.01% Brig-35, 0.1 mM DTT). The fluorescent probe ligand was added at a final concentration of 300 nM to solutions containing 0.21 nM Tb-anti-GST Ab, 1 mM CaCl2, 10 μg/mL calmodulin, and 0.5 nM GST-tagged CaMKIIδ. After shaded incubation of the protein-probe mixture on ice for 30 min, the premix was dispensed in the assay plate including test inhibitors with 4 fold dilution series of eight concentrations. After 1 hr incubation at room temperature, TR-FRET signals were measured in duplicate using an EnVision microplate reader (Perkin Elmer, Waltham, Mass., USA). The solution in each well was excited with a laser (λ=340 nm) reflected by a dichroic mirror (D400/D505 (Perkin Elmer) through an excitation filter (UV (TRF) 340, (Perkin Elmer)), and fluorescence from Tb and BODIPY were detected through two emission filters (CFP 495 (Perkin Elmer) for Tb, Emission 520 (Perkin Elmer) for BODIPY).
# The percentage of inhibition of test compounds was calculated according to equation (1) Inhibition(%)=100×(μH−T)/(μH−μL) (1)
# Where T is the value of the wells containing test compounds and μH and μL are the mean values of the 0% and 100% inhibition control wells, respectively. The values of the 0 and 100% controls were the signals obtained in the absence and presence of 3 μM its parent compound, respectively. The half maximal inhibitory concentration (IC50) of test compounds was calculated by fitting the data with the logistic equation using XLfit (IDBS, Guildford, UK). The IC50 was classified according to the following activity ranks.
row,SMILES,IC50 [nM]
1,"COCCOc1nn([C@H]2CC[C@H](N3CCOCC3)CC2)cc1Nc1ncc(-c2ccc(C#N)c(O[C@@H](C)Cn3cnnn3)c2)cn1 [Example 1, 2-(((S)-1-(1H-tetrazol-1-yl)propan-2-yl)oxy)-4-(2-((3-(2-methoxyethoxy)-1-((1r,4r)-4-morpholinocyclohexyl)-1H-pyrazol-4-yl)amino)pyrimidin-5-yl)benzonitrile]",< 10
2,"COCCOc1nn([C@H]2CC[C@H](N3CCOCC3)CC2)cc1Nc1ncc(-c2ccc(Cl)c(O[C@@H](C)Cn3cnnn3)c2)cn1 [Example 2, 5-(3-(((S)-1-(1H-tetrazol-1-yl)propan-2-yl)oxy)-4-chlorophenyl)-N-(3-(2-methoxyethoxy)-1-((1r,4r)-4-morpholinocyclohexyl)-1H-pyrazol-4-yl)pyrimidin-2-amine]",< 10
3,"CCOCCOc1nn([C@H]2CC[C@H](N3CCOCC3)CC2)cc1Nc1ncc(-c2ccc(C#N)c(O[C@@H](C)Cn3cnnn3)c2)cn1 [Example 8, 2-(((S)-1-(1H-tetrazol-1-yl)propan-2-yl)oxy)-4-(2-((3-(2-ethoxyethoxy)-1-((1r,4r)-4-morpholinocyclohexyl)-1H-pyrazol-4-yl)amino)pyrimidin-5-yl)benzonitrile]",< 10
4,"CCOCCOc1nn([C@H]2CC[C@H](N3CCOCC3)CC2)cc1Nc1ncc(-c2ccc(Cl)c(O[C@@H](C)Cn3cnnn3)c2)cn1 [Example 9, 5-(3-(((S)-1-(1H-tetrazol-1-yl)propan-2-yl)oxy)-4-chlorophenyl)-N-(3-(2-ethoxyethoxy)-1-((1r,4r)-4-morpholinocyclohexyl)-1H-pyrazol-4-yl)pyrimidin-2-amine]",< 10
5,"CC(C)OCCOc1nn([C@H]2CC[C@H](N3CCOCC3)CC2)cc1Nc1ncc(-c2ccc(C#N)c(O[C@@H](C)Cn3cnnn3)c2)cn1 [Example 14, 2-(((S)-1-(1H-tetrazol-1-yl)propan-2-yl)oxy)-4-(2-((3-(2-isopropoxyethoxy)-1-((1r,4r)-4-morpholinocyclohexyl)-1H-pyrazol-4-yl)amino)pyrimidin-5-yl)benzonitrile]",< 10
6,"CC(C)OCCOc1nn([C@H]2CC[C@H](N3CCOCC3)CC2)cc1Nc1ncc(-c2ccc(C#N)c(O[C@@H](C)Cn3cncn3)c2)cn1 [Example 16, 2-(((S)-1-(1H-1,2,4-triazol-1-yl)propan-2-yl)oxy)-4-(2-((3-(2-isopropoxyethoxy)-1-((1r,4r)-4-morpholinocyclohexyl)-1H-pyrazol-4-yl)amino)pyrimidin-5-yl)benzonitrile]",< 10
7,"COCCCOc1nn([C@H]2CC[C@H](N3CCOCC3)CC2)cc1Nc1ncc(-c2ccc(Cl)c(O[C@@H](C)Cn3cnnn3)c2)cn1 [Example 27, 5-(3-(((S)-1-(1H-tetrazol-1-yl)propan-2-yl)oxy)-4-chlorophenyl)-N-(3-(3-methoxypropoxy)-1-((1r,4r)-4-morpholinocyclohexyl)-1H-pyrazol-4-yl)pyrimidin-2-amine]",< 10
8,"COCCCOc1nn([C@H]2CC[C@H](N3CCOCC3)CC2)cc1Nc1ncc(-c2ccc(C#N)c(O[C@@H](C)Cn3cncn3)c2)cn1 [Example 28, 2-(((S)-1-(1H-1,2,4-triazol-1-yl)propan-2-yl)oxy)-4-(2-((3-(3-methoxypropoxy)-1-((1r,4r)-4-morpholinocyclohexyl)-1H-pyrazol-4-yl)amino)pyrimidin-5-yl)benzonitrile]",< 10
9,"CCOCCCOc1nn([C@H]2CC[C@H](N3CCOCC3)CC2)cc1Nc1ncc(-c2ccc(Cl)c(O[C@@H](C)Cn3cnnn3)c2)cn1 [Example 34, 5-(3-(((S)-1-(1H-tetrazol-1-yl)propan-2-yl)oxy)-4-chlorophenyl)-N-(3-(3-ethoxypropoxy)-1-((1r,4r)-4-morpholinocyclohexyl)-1H-pyrazol-4-yl)pyrimidin-2-amine]",< 10
10,"C[C@@H](Cn1cnnn1)Oc1cc(-c2cnc(Nc3cn([C@H]4CC[C@H](N5CCOCC5)CC4)nc3OCCCOCC(F)F)nc2)ccc1C#N [Example 46, 2-(((S)-1-(1H-tetrazol-1-yl)propan-2-yl)oxy)-4-(2-((3-(3-(2,2-difluoroethoxy)propoxy)-1-((1r,4r)-4-morpholinocyclohexyl)-1H-pyrazol-4-yl)amino)pyrimidin-5-yl)benzonitrile]",< 10
11,"C[C@@H](Cn1cnnn1)Oc1cc(-c2cnc(Nc3cn([C@H]4CC[C@H](N5CCOCC5)CC4)nc3OCCCOCC(F)F)nc2)ccc1Cl [Example 47, 5-(3-(((S)-1-(1H-tetrazol-1-yl)propan-2-yl)oxy)-4-chlorophenyl)-N-(3-(3-(2,2-difluoroethoxy)propoxy)-1-((1r,4r)-4-morpholinocyclohexyl)-1H-pyrazol-4-yl)pyrimidin-2-amine]",< 10
12,"COCCOCCOc1nn([C@H]2CC[C@H](N3CCOCC3)CC2)cc1Nc1ncc(-c2ccc(C#N)c(O[C@@H](C)Cn3cnnn3)c2)cn1 [Example 48, 2-(((S)-1-(1H-tetrazol-1-yl)propan-2-yl)oxy)-4-(2-((3-(2-(2-methoxyethoxy)ethoxy)-1-((1r,4r)-4-morpholinocyclohexyl)-1H-pyrazol-4-yl)amino)pyrimidin-5-yl)benzonitrile hydrochloride]",< 10
13,"COCCOCCOc1nn([C@H]2CC[C@H](N3CCOCC3)CC2)cc1Nc1ncc(-c2ccc(Cl)c(O[C@@H](C)Cn3cnnn3)c2)cn1 [Example 49, 5-(3-(((S)-1-(1H-tetrazol-1-yl)propan-2-yl)oxy)-4-chlorophenyl)-N-(3-(2-(2-methoxyethoxy)ethoxy)-1-((1r,4r)-4-morpholinocyclohexyl)-1H-pyrazol-4-yl)pyrimidin-2-amine hydrochloride]",< 10
14,"C[C@@H](Cn1cnnn1)Oc1cc(-c2cnc(Nc3cn([C@H]4CC[C@H](N5[C@@H]6CC[C@H]5COC6)CC4)nc3OCCS(C)(=O)=O)nc2)ccc1Cl [Example 86, 5-(3-(((S)-1-(1H-tetrazol-1-yl)propan-2-yl)oxy)-4-chlorophenyl)-N-(1-((1r,4r)-4-((1R,5S)-3-oxa-8-azabicyclo[3.2.1]octan-8-yl)cyclohexyl)-3-(2-(methylsulfonyl)ethoxy)-1H-pyrazol-4-yl)pyrimidin-2-amine]",< 10
15,"C[C@@H](Cn1cnnn1)Oc1cc(-c2cnc(Nc3cn([C@H]4CC[C@H](N5CCOCC5)CC4)nc3OCc3ccccn3)nc2)ccc1C#N [Example 129, 2-(((S)-1-(1H-tetrazol-1-yl)propan-2-yl)oxy)-4-(2-((1-((1r,4r)-4-morpholinocyclohexyl)-3-(pyridin-2-ylmethoxy)-1H-pyrazol-4-yl)amino)pyrimidin-5-yl)benzonitrile]",< 10
16,"C[C@@H](Cn1cnnn1)Oc1cc(-c2cnc(Nc3cn([C@H]4CC[C@H](N5CCOCC5)CC4)nc3OCc3ccccn3)nc2)ccc1Cl [Example 130, 5-(3-(((S)-1-(1H-tetrazol-1-yl)propan-2-yl)oxy)-4-chlorophenyl)-N-(1-((1r,4r)-4-morpholinocyclohexyl)-3-(pyridin-2-ylmethoxy)-1H-pyrazol-4-yl)pyrimidin-2-amine]",< 10
17,"C[C@@H](Cn1cnnn1)Oc1cc(-c2cnc(Nc3cn([C@H]4CC[C@H](N5[C@@H]6CC[C@H]5COC6)CC4)nc3OCCCS(C)(=O)=O)nc2)ccc1Cl [Example 142, 5-(3-(((S)-1-(1H-tetrazol-1-yl)propan-2-yl)oxy)-4-chlorophenyl)-N-(1-((1r,4r)-4-((1R,5S)-3-oxa-8-azabicyclo[3.2.1]octan-8-yl)cyclohexyl)-3-(3-(methylsulfonyl)propoxy)-1H-pyrazol-4-yl)pyrimidin-2-amine]",< 10
18,"COCCCCOc1nn([C@H]2CC[C@H](N3CCOCC3)CC2)cc1Nc1ncc(-c2ccc(C#N)c(O[C@@H](C)Cn3cnnn3)c2)cn1 [Example 150, 2-(((S)-1-(1H-tetrazol-1-yl)propan-2-yl)oxy)-4-(2-((3-(4-methoxybutoxy)-1-((1r,4r)-4-morpholinocyclohexyl)-1H-pyrazol-4-yl)amino)pyrimidin-5-yl)benzonitrile]",< 10
19,"COCCCCOc1nn([C@H]2CC[C@H](N3CCOCC3)CC2)cc1Nc1ncc(-c2ccc(Cl)c(O[C@@H](C)Cn3cnnn3)c2)cn1 [Example 151, 5-(3-(((S)-1-(1H-tetrazol-1-yl)propan-2-yl)oxy)-4-chlorophenyl)-N-(3-(4-methoxybutoxy)-1-((1r,4r)-4-morpholinocyclohexyl)-1H-pyrazol-4-yl)pyrimidin-2-amine]",< 10
